From patent US5849709A, “Saccharopeptides and derivatives thereof” (Glycomed Incorporated, priority 1995, dated 1998) come the findings set out here.

One may read the IC50 as the concentration that inhibits the measured activity by half.

In one test the target is human recombinant bFGF (Homo sapiens, UniProt P09038). Briefly: UC-PBA assay: binding of RO-12 UC cells to bFGF coated micro-titer wells. In kind it is cell-based. Particulars: for bFGF binding activity in the UC-PBA assay: heparin as positive control. The procedure: The effect of compositions 26 on the binding of RO-12 UC cells to bFGF coated micro-titer wells was determined as described by Ishihara, M., et al., Anal Biochem (1992) 202:310-315. (Also see U.S. Pat. No. 5,296,471, issued Mar. 22, 1994). Bound cells are readily quantitated as total protein.
human recombinant bFGF, sequence (P09038 134-288): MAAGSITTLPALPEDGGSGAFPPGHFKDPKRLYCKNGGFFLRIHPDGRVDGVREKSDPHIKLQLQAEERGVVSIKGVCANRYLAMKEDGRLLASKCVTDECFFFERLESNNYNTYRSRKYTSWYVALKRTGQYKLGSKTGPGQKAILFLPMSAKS
The assay was run as follows: Fifty microliters of 10 μg/ml human recombinant bFGF was added to wells of a 96-well tissue culture plate and incubated overnight at 4° C. The wells were aspirated with PBS to remove any unbound bFGF, rinsed twice with PBS, and subsequently incubated with PBS containing 5% (v/v) fetal bovine serum for 1 hour at room temperature. RO-12 UC cells were suspended at a density of 3×10^6 cells/ml in PBS containing 5% fetal bovine serum. To this mixture was added the desired amount of sulfated composition, or heparin. They were made up in PBS plus 2.5% fetal bovine serum. A control was also run, containing only PBS plus 2.5% fetal bovine serum. Next, 100 μl of the cell suspension was immediately added to the microtiter wells, and incubated for 5 minutes, after which the wells were washed 3 times with PBS. Finally, the amount of cell protein bound to the wells was determined by dissolving the bound cells in 20 μl of 5% SDS and measuring the protein concentration of the cell lysates. BSA was used as the standard.
(§1) The APTT values of composition 26 were determined as described in U.S. Pat. No. 5,296,471. Table 3 lists the results for the UC-PBA assay, the ACE cell growth inhibition assay, and the APTT values respectively.

The next test deals with β-glucuronidase. Briefly: β-Glucuronidase inhibition assay (Sigma kit 325-A, phenolphthalein glucuronic acid substrate). It is filed as biochemical. Conditions: 15 μl of 50 mM 9β; for A550 value (β-glucuronidase assay): 550 nm, pH 4.5. Here is the method:
The β-glucuronidase inhibition assay is preferably performed in a solvent. Examples of the solvent include water and a suitable buffer, preferably an acetate or an AMP (2-amino-2-methyl-1-propanol) buffer. Phenolphthalein mono-β-glucuronic acid and a saccharopeptide substrate are treated with the enzyme at room temperature, at a pH of about 4-5. The reaction period ranges from 0.5-2 hours. After completion of the reaction, the enzymic reaction is stopped by adjusting the pH and the absorbance is measured at 550 nm.
Composition 9β was used to measure the β-glucuronidase activity, and the measurement was performed in the same manner as that of the conventional method.
The procedure was carried out according to instructions provided in the Sigma kit 325-A. The reagents used were provided in the kit and the proportions of the reagents used is described in the table below:
______________________________________
*0.2M sodium acetate buffer, pH 4.5 at 25° C.;
^# 30 mM phenolphthalein glucuronic acid (PGA), pH 4.5 at 25°
All components, except PGA, were pre-incubated at room temperature for 30 min, PGA was then added to the mixture. At various time points (0.5, 1 and 2h), 2 μl aliquots were removed and added to 1 ml assay diluent, mixed and absorbance read at 550 nm against the blank (A550). The assay diluent is a mixture of acetate buffer (1.44 ml), water (0.96 ml) and AMP (2-amino-2-methyl-1-propanol) buffer (12 ml, 0.1M AMP, pH 11, containing 0.2% sodium lauryl sulfate).

The next test in a line: APTT. The procedure:
as §1

Regarding Heparin [reference compound], the “bFGF binding activity in the UC-PBA assay” value on human recombinant bFGF is “inhibits RO-12 UC cell binding”.
As for `[N-]=[N+]=N[C@@H]1O[C@H](C(=O)N[C@@H]2O[C@H](C(=O)O)[C@@H](O)[C@H](O)[C@H]2O)[C@@H](O)[C@H](O)[C@H]1O` [Composition 9β, N-(β-D-glucopyran-1-osyluronic acid)-1-azido-1-deoxy-β-D-glucopyranuronamide], the “reduction of β-glucuronidase activity” value in the test with β-glucuronidase is listed as “about 85%”. Moreover, the “A550 value (β-glucuronidase assay)” value is given as 0.014 in the test on β-glucuronidase (0.5 h, room temperature (control 0.104)); 0.030 in the test with β-glucuronidase (1.0 h, room temperature (control 0.199)); 0.059 in the test on β-glucuronidase (2.0 h, room temperature (control 0.396)).
In the case of `O=C(CCC(=O)N[C@@H]1O[C@H](COS(=O)(=O)O)[C@@H](O[C@H]2O[C@H](COS(=O)(=O)O)[C@@H](O[C@H]3O[C@H](COS(=O)(=O)O)[C@@H](OS(=O)(=O)O)[C@H](OS(=O)(=O)O)[C@H]3OS(=O)(=O)O)[C@H](OS(=O)(=O)O)[C@H]2OS(=O)(=O)O)[C@H](OS(=O)(=O)O)[C@H]1OS(=O)(=O)O)N[C@@H]1O[C@H](COS(=O)(=O)O)[C@@H](O[C@H]2O[C@H](COS(=O)(=O)O)[C@@H](O[C@H]3O[C@H](COS(=O)(=O)O)[C@@H](OS(=O)(=O)O)[C@H](OS(=O)(=O)O)[C@H]3OS(=O)(=O)O)[C@H](OS(=O)(=O)O)[C@H]2OS(=O)(=O)O)[C@H](OS(=O)(=O)O)[C@H]1OS(=O)(=O)O` [Composition 26], the IC50 at human recombinant bFGF (RO-12 UC cells, bFGF coated wells) is 0.372 µM. Moreover, at human recombinant bFGF, the “bFGF binding activity in the UC-PBA assay” value was “comparable to heparin”. The molecule further registered an APTT value in the test “APTT” (as described in U.S. Pat. No. 5,296,471) of 14.2%. In addition, the “APTT value, comparison in words” value in “APTT” (versus other compounds of similar size) was “significantly lower than that of other compounds of similar size”.
